Our source for the IC50 values is US20240294522A1 (Lead Discovery Center GmbH, priority 2021, published 2024).

For one experiment, the target named is T1, GRK2 (Homo sapiens, UniProt P25098).
T1 construct: purchased Thermo Scientific
T1 sequence (P25098 1-689): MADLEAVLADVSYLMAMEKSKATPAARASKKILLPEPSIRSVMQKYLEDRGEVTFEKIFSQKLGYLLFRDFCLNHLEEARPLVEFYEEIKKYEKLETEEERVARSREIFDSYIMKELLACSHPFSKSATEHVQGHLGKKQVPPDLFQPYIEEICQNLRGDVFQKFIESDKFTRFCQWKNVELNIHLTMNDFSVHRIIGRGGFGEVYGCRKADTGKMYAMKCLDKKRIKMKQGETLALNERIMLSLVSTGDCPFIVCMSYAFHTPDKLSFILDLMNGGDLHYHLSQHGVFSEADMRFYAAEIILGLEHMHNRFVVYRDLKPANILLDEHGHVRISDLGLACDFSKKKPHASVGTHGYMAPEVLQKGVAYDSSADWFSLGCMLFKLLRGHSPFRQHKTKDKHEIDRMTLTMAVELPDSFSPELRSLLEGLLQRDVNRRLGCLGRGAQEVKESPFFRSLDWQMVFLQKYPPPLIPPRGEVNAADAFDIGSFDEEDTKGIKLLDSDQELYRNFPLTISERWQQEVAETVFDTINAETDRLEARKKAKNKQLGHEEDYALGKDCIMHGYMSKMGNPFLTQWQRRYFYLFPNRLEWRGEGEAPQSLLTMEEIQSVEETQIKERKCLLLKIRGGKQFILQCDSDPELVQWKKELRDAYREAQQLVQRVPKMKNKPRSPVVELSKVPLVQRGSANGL
The experiment in a line: Lance Kinase Activity Assay, GRK2. Particulars: biochemical Lance kinase activity assay; class symbols A-F; read-out: GRK2 LANCE Assay (IC-50). Summed up:
(§1)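 IC50s from sigmoidal dose-response over 0.0025-10 μM compound, with phosphorylated ULight substrate detected by Eu anti-phospho antibody FRET after EDTA quench.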
A general note: Time-resolved FRET reads energy transfer from a long-lived donor to a nearby acceptor.

In the next experiment the target is T2, GRK5 (Homo sapiens, UniProt P34947).
T2 construct: purchased Thermo Scientific
In words: Lance Kinase Activity Assay, GRK5. To be noted: biochemical Lance kinase activity assay; class symbols A-F; read-out: GRK5 LANCE Assay (IC-50). Summed up:
as §1

T2 sequence (P34947 whole entry): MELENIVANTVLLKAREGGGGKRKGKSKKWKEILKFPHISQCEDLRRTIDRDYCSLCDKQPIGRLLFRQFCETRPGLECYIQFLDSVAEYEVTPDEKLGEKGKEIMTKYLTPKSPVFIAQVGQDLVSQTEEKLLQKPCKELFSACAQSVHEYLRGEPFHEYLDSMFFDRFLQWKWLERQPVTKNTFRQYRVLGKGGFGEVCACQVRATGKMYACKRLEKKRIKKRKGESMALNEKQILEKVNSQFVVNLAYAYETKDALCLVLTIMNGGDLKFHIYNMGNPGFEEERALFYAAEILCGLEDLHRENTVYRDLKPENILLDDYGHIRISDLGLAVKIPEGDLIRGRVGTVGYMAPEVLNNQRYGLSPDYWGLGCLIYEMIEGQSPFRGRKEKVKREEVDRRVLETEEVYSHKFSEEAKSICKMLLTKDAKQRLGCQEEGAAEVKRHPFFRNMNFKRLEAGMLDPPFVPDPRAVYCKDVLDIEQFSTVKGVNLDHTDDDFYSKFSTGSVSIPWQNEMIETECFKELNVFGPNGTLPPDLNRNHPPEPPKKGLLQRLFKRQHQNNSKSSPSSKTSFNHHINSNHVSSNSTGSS

Turning to `COc1ccc([C@@H](C)NC(=O)/C(C#N)=C/c2c[nH]c3ncc(OC4CCOC4)cc23)cc1OC` (stereo partly drawn) [Example 103, (E)-2-cyano-N-((R)-1-(3,4-dimethoxyphenyl)ethyl)-3-(5-((tetrahydrofuran-3-yl)oxy)-1H-pyrrolo[2,3-b]pyridin-3-yl)acrylamide], the IC50 at GRK2 was 1000 to 10000 nM; at GRK5, no more than 50 nM.
The corresponding values for `C[C@@H](NC(=O)/C(C#N)=C/c1c[nH]c2ncccc12)c1ccccc1Cl` [Example 12, (R,E)-N-(1-(2-chlorophenyl)ethyl)-2-cyano-3-(1H-pyrrolo[2,3-b]pyridin-3-yl)acrylamide] are 500 to 1000 nM and 100 to 500 nM.
In the same order, the values of `COc1ccc([C@@H](C)NC(=O)/C=C/c2c[nH]c3ncc(-c4cccc(S(=O)(=O)N(C)C)c4)cc23)cc1OC` [Example 198, (R,E)-N-(1-(3,4-dimethoxyphenyl)ethyl)-3-(5-(3-(N,N-dimethylsulfamoyl)phenyl)-1H-pyrrolo[2,3-b]pyridin-3-yl)acrylamide] are 1000 to 10000 nM and no more than 50 nM.
As to `COc1ccc([C@@H](C)NC(=O)/C=C/c2c[nH]c3ncc(-c4ccccc4CN4CCOCC4)cc23)cc1OC` [Example 206, (R,E)-N-(1-(3,4-dimethoxyphenyl)ethyl)-3-(5-(2-(morpholinomethyl)phenyl)-1H-pyrrolo[2,3-b]pyridin-3-yl)acrylamide], the IC50 is greater than 10000 nM at GRK2 and 1000 to 10000 nM at GRK5.
With `COc1ccc([C@@H](C)NC(=O)/C(C#N)=C/c2c[nH]c3ncc(-c4ccc(F)c(S(C)(=O)=O)c4)c(C)c23)cc1OC` [Example 245, (R,E)-2-cyano-N-(1-(3,4-dimethoxyphenyl)ethyl)-3-(5-(4-fluoro-3-(methylsulfonyl)phenyl)-4-methyl-1H-pyrrolo[2,3-b]pyridin-3-yl)acrylamide], the IC50 on GRK2 was greater than 10000 nM; at GRK5 it was 500 to 1000 nM.
In the same order, the values of `COc1cc(C(C)NC(=O)/C=C/c2c[nH]c3ncc(-c4cnn(C)c4)cc23)ccc1[S+](C)[O-]` (stereo not shown) [Example 255, (E)-N-(1-(3-methoxy-4-(methylsulfinyl)phenyl)ethyl)-3-(5-(1-methyl-1H-pyrazol-4-yl)-1H-pyrrolo[2,3-b]pyridin-3-yl)acrylamide] are greater than 10000 nM and 100 to 500 nM.
In the case of `N#C/C(=C\c1c[nH]c2ncc(Cl)cc12)C(=O)NCc1ccccc1Cl` [Example 74, (E)-3-(5-chloro-1H-pyrrolo[2,3-b]pyridin-3-yl)-N-(2-chlorobenzyl)-2-cyanoacrylamide], the IC50 on GRK2 was greater than 10000 nM; at GRK5 it was 1000 to 10000 nM.
With `COc1ccc([C@@H](C)NC(=O)/C(C#N)=C/c2c[nH]c3ncc(-c4cccc(N(C)C)c4)cc23)cc1OC` [Example 128, (R,E)-2-cyano-N-(1-(3,4-dimethoxyphenyl)ethyl)-3-(5-(3-(dimethylamino)phenyl)-1H-pyrrolo[2,3-b]pyridin-3-yl)acrylamide], the IC50 on GRK2 is greater than 10000 nM; on GRK5, 100 to 500 nM.
On to `N#C/C(=C\c1c[nH]c2ncccc12)C(=O)NCc1cccc(CS(N)(=O)=O)c1` [Example 27, (E)-2-cyano-3-(1H-pyrrolo[2,3-b]pyridin-3-yl)-N-(3-(sulfamoylmethyl)benzyl)-acrylamide], for which the IC50 on GRK2 and on GRK5 was 1000 to 10000 nM each time.
On to `Cc1c(-c2cnn(C)c2)cnc2[nH]cc(/C=C(\C#N)C(=O)N[C@H](C)c3ccc(F)cc3)c12` [Example 98, (R,E)-2-cyano-N-(1-(4-fluorophenyl)ethyl)-3-(4-methyl-5-(1-methyl-1H-pyrazol-4-yl)-1H-pyrrolo[2,3-b]pyridin-3-yl)acrylamide], for which the IC50 at GRK2 and at GRK5 was 500 to 1000 nM throughout.
In the case of `COc1ccc([C@@H](C)NC(=O)/C(C#N)=C/c2c[nH]c3ncc(-c4cn(C)nc4C)cc23)cc1OC` [Example 168, (R,E)-2-cyano-N-(1-(3,4-dimethoxyphenyl)ethyl)-3-(5-(1,3-dimethyl-1H-pyrazol-4-yl)-1H-pyrrolo[2,3-b]pyridin-3-yl)acrylamide], the IC50 was 1000 to 10000 nM at GRK2 and no more than 50 nM at GRK5.
On to `COc1ccc([C@@H](C)NC(=O)/C=C/c2c[nH]c3ncc(-c4cccc(CS(C)(=O)=O)c4)cc23)cc1OC` [Example 217, (R,E)-N-(1-(3,4-dimethoxyphenyl)ethyl)-3-(5-(3-((methylsulfonyl)methyl)phenyl)-1H-pyrrolo[2,3-b]pyridin-3-yl)acrylamide], for which the IC50 was 1000 to 10000 nM on GRK2 and no more than 50 nM on GRK5.
Consider `N#C/C(=C\c1c[nH]c2ncccc12)C(=O)NCc1cccc(N2CCOCC2)c1` [Example 46, (E)-2-cyano-N-(3-morpholinobenzyl)-3-(1H-pyrrolo[2,3-b]pyridin-3-yl)acrylamide], for which the IC50 is greater than 10000 nM on GRK2 and 1000 to 10000 nM at GRK5.
With `C[C@@H](NC(=O)/C(C#N)=C/c1c[nH]c2ncccc12)c1ccc(F)cc1F` [Example 17, (R,E)-2-cyano-N-(1-(2,4-difluorophenyl)ethyl)-3-(1H-pyrrolo[2,3-b]pyridin-3-yl)acrylamide], the IC50 on GRK2 and on GRK5 was 100 to 500 nM throughout.
In the case of `COc1ccc([C@@H](C)NC(=O)/C(C#N)=C/c2c[nH]c3ncc(-c4cccc(OCCCN(C)C)c4)cc23)cc1OC` [Example 133], the IC50 on GRK2 and on GRK5 was 1000 to 10000 nM throughout.
On to `COc1ccc([C@@H](C)NC(=O)/C(C#N)=C/c2c[nH]c3ncccc23)cc1OC` [Example 15, (R,E)-2-cyano-N-(1-(3,4-dimethoxyphenyl)ethyl)-3-(1H-pyrrolo[2,3-b]pyridin-3-yl)acrylamide], for which the IC50 at GRK2 was in the range of 1000 to 10000 nM; on GRK5, 50 to 100 nM.
The corresponding values for `CC[S+]([O-])c1cccc(-c2ccnc3[nH]cc(/C=C/C(=O)N[C@H](C)c4ccc(OC)c(OC)c4)c23)c1` (stereo partly drawn) [Example 239, (E)-N-((R)-1-(3,4-dimethoxyphenyl)ethyl)-3-(4-(3-(ethylsulfinyl)phenyl)-1H-pyrrolo[2,3-b]pyridin-3-yl)acrylamide] are greater than 10000 nM and 500 to 1000 nM.
In the same order, the values of `N#C/C(=C\c1c[nH]c2ncccc12)C(=O)NCc1ccc(F)cc1F` [Example 65, (E)-2-cyano-N-(2,4-difluorobenzyl)-3-(1H-pyrrolo[2,3-b]pyridin-3-yl)acrylamide] are 1000 to 10000 nM and 1000 to 10000 nM.
Consider `COc1ccc([C@@H](C)NC(=O)/C(C#N)=C/c2c[nH]c3ncc(-c4cccc(N5CCN(C)CC5)c4)cc23)cc1OC` [Example 122, (R,E)-2-cyano-N-(1-(3,4-dimethoxyphenyl)ethyl)-3-(5-(3-(4-methylpiperazin-1-yl)phenyl)-1H-pyrrolo[2,3-b]pyridin-3-yl)acrylamide], for which the IC50 on GRK2 was greater than 10000 nM; at GRK5 it was no more than 50 nM.
For the compound `COc1ccc([C@@H](C)NC(=O)/C=C/c2c[nH]c3ncc(-c4cccc(C#N)c4)cc23)cc1OC` [Example 221, (R,E)-3-(5-(3-cyanophenyl)-1H-pyrrolo[2,3-b]pyridin-3-yl)-N-(1-(3,4-dimethoxyphenyl)ethyl)acrylamide], the IC50 was greater than 10000 nM on GRK2 and no more than 50 nM on GRK5.
In the same order, the values of `C[C@@H](NC(=O)/C(C#N)=C/c1c[nH]c2ncc(-c3ccccc3)cc12)c1ccc(F)cc1` [Example 179] are 1000 to 10000 nM and 100 to 500 nM.
On to `COc1ccc([C@@H](C)NC(=O)/C=C/c2c[nH]c3nccc(-c4ccccc4)c23)cc1OC` [Example 225, (R,E)-N-(1-(3,4-dimethoxyphenyl)ethyl)-3-(4-phenyl-1H-pyrrolo[2,3-b]pyridin-3-yl)acrylamide], for which the IC50 on GRK2 fell in the range of 1000 to 10000 nM; on GRK5, 50 to 100 nM.
With `COc1ccc([C@@H](C)NC(=O)/C(C#N)=C/c2c[nH]c3ncc(-c4cnn(C)c4)c(C)c23)cc1OC` [Example 99, (R,E)-2-cyano-N-(1-(3,4-dimethoxyphenyl)ethyl)-3-(4-methyl-5-(1-methyl-1H-pyrazol-4-yl)-1H-pyrrolo[2,3-b]pyridin-3-yl)acrylamide], the IC50 at GRK2 was greater than 10000 nM; at GRK5 it was 100 to 500 nM.
In the same order, the values of `COc1ccc([C@@H](C)NC(=O)/C=C/c2c[nH]c3ncc(-c4ccc(CN(C)C)cc4)cc23)cc1OC` [Example 184] are greater than 10000 nM and 50 to 100 nM.
The corresponding values for `COc1ccc([C@@H](C)NC(=O)/C=C/c2c[nH]c3nccc(-c4ccc(C5CCN(C)CC5)cc4)c23)cc1OC` [Example 240, (R,E)-N-(1-(3,4-dimethoxyphenyl)ethyl)-3-(4-(4-(1-methylpiperidin-4-yl)phenyl)-1H-pyrrolo[2,3-b]pyridin-3-yl)acrylamide] are 1000 to 10000 nM and 50 to 100 nM.
Turning to `COc1ccc([C@@H](C)NC(=O)/C=C/c2c[nH]c3ncc(-c4ccc(F)cc4OC)cc23)cc1OC` [Example 201, (R,E)-N-(1-(3,4-dimethoxyphenyl)ethyl)-3-(5-(4-fluoro-2-methoxyphenyl)-1H-pyrrolo[2,3-b]pyridin-3-yl)acrylamide], the values for the IC50 on GRK2 and on GRK5 were greater than 10000 nM and 100 to 500 nM, respectively.
